Measurements reported in PubChem BioAssay AID651842 (Sanford-Burnham Center for Chemical Genomics, 2012).
Where “and” joins values, the source holds several entries; their conditions need not be identical. Equal values may be shown once. Calls of active or inactive are those of the source.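 How the source made its calls: active means IC50 of 35 µM or lower, which flags the compound as cytotoxic and nonspecific; inactive means the rest.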

Test system: Sufu-KO-LIGHT cells viability, ATP-Lite luminescence
Experiment: cytotoxicity in Sufu-KO-LIGHT cells, SAR follow-up, cytotoxicity control for Gli-SUFU antagonist project, cell-based, ATP luminescence, set 1 (AID 651842)

Row | Compound | IC50
1 | CCN(CC)c1cc(NC(=O)c2cccc(F)c2)ncn1 | > 35 µM (inactive)
2 | N#Cc1ccc(C(=O)Nc2cc(N3CCCCC3)ncn2)cc1 | > 35 µM (inactive)
3 | CN1CCN(c2cc(NC(=O)c3ccccc3)ncn2)CC1 | > 35 µM (inactive)
4 | O=C(Nc1cc(N2CCCCC2)ncn1)c1ccc2ccccc2c1 | 2.57 µM
5 | O=C(Nc1cc(N2CCCCC2)ncn1)c1cc2ccccc2s1 | 6.97 µM
6 | CCC(C)Nc1cc(NC(=O)c2ccccc2)ncn1 (centres undefined) | > 35 µM (inactive)
7 | O=C(Nc1cc(N2CCOCC2)ncn1)c1ccccc1 | > 35 µM (inactive)
8 | CCN(CC)c1cc(NC(=O)c2ccccc2)nc(C)n1 | > 35 µM (inactive)
9 | O=C(Nc1cc(N2CCCCC2)ncn1)c1cccc2ccccc12 | > 35 µM (inactive)
10 | CC(C)Nc1cc(NC(=O)c2ccccc2)ncn1 | > 35 µM (inactive)
11 | CN(C)c1cc(NC(=O)c2ccccc2F)ncn1 | > 35 µM (inactive)
12 | CC(C)(C)OC(=O)N1CCN(c2cc(NC(=O)c3ccccc3)ncn2)CC1 | 0.24 µM
13 | CCN(CC)c1cc(NC(=O)c2ccccc2F)ncn1 | > 35 µM (inactive)
14 | CCCCN(C)c1cc(NC(=O)c2ccccc2)ncn1 | 2.89 µM
15 | CCN(CC)c1cc(NC(=O)c2ccccc2)ncn1 | > 35 µM (inactive)
16 | O=C(Nc1cc(N2CCCCC2)ncn1)c1ccsc1 | > 35 µM (inactive)
17 | O=C(Nc1cc(N2CCCCC2)ncn1)c1ccc(Br)o1 | > 35 µM (inactive)
18 | O=C(Nc1cc(N2CCCCCC2)ncn1)c1ccccc1 | > 35 µM (inactive)
19 | O=C(Nc1cc(N2CCCCC2)ncn1)c1ccco1 | > 35 µM (inactive)
20 | CCN(CC)c1cc(NC(=O)c2cc(OC)cc(OC)c2)ncn1 | > 35 µM (inactive)
21 | COc1cccc(C(=O)Nc2cc(N3CCCCC3)ncn2)c1 | 2.28 µM
22 | CC1CCCCN1c1cc(NC(=O)c2ccccc2)ncn1 (centres undefined) | > 35 µM (inactive)
23 | N#Cc1cccc(C(=O)Nc2cc(N3CCCCC3)ncn2)c1 | > 35 µM (inactive)
24 | CCCCNc1cc(NC(=O)c2ccccc2)ncn1 | > 35 µM (inactive)
25 | CC(C)(C)Nc1cc(NC(=O)c2ccccc2)ncn1 | > 35 µM (inactive)
26 | O=C(Nc1cc(N2CCCCC2)ncn1)c1ccccc1F | > 35 µM (inactive)
27 | O=C(Nc1cc(N2CCCCC2)ncn1)c1ccc(Cl)cc1 | 1.42 µM and 0.588 µM

Row | Compound | IC50
28 | O=C(Nc1cc(N2CCCC2)ncn1)c1ccccc1 | > 35 µM (inactive)
29 | O=C(Nc1cc(N2CCCC2)ncn1)c1cccc(F)c1 | > 35 µM (inactive)
30 | CN(C)c1cc(NC(=O)c2ccccc2)ncn1 | > 35 µM (inactive)
31 | CCN(CC)c1cc(NC(=O)c2ccc(Br)o2)ncn1 | > 35 µM (inactive)
32 | Cc1nc(NC(=O)c2ccccc2)cc(N2CCCCC2)n1 | > 35 µM (inactive)
33 | CN(C)c1cc(NC(=O)c2cccc(C#N)c2)ncn1 | > 35 µM (inactive)
34 | Cc1ccc(C(=O)Nc2cc(N3CCCCC3)ncn2)cc1 | 3.45 µM
35 | O=C(Nc1cc(N2CCCCC2)ncn1)c1cccc(F)c1 | > 35 µM (inactive)
36 | O=C(Nc1cc(N2CCCCC2)ncn1)c1ccccc1Cl | > 35 µM (inactive)
37 | CC(C)CNc1cc(NC(=O)c2cccc(F)c2)ncn1 | > 35 µM (inactive)
38 | CC(C)CNc1cc(NC(=O)c2ccccc2)ncn1 | > 35 µM (inactive)
39 | COc1ccccc1C(=O)Nc1cc(N2CCCCC2)ncn1 | > 35 µM (inactive)
40 | Cc1nc(NC(=O)c2ccccc2)cc(N2CCCC2)n1 | > 35 µM (inactive)
41 | CC1CCN(c2cc(NC(=O)c3ccccc3)ncn2)CC1 | > 35 µM (inactive)
42 | O=C(Nc1cc(N2CCCC2)ncn1)c1ccccc1F | > 35 µM (inactive)
43 | COc1cc(OC)cc(C(=O)Nc2cc(Nc3cccc(Cl)c3)ncn2)c1 | > 35 µM (inactive)
44 | O=C(Nc1cc(N2CCSCC2)ncn1)c1ccccc1 | > 35 µM (inactive)
45 | COc1cc(OC)cc(C(=O)Nc2cc(N3CCCC3)ncn2)c1 | > 35 µM (inactive)
46 | O=C(Nc1cc(N2CCCCC2)ncn1)c1cccs1 | > 35 µM (inactive)
47 | O=C(Nc1cc(NCC2CCCO2)ncn1)c1ccccc1 (centres undefined) | > 35 µM (inactive)
48 | O=C(Nc1cc(N2CCCCC2)ncn1)c1ccccc1 | > 35 µM (inactive)
49 | Cc1nc(NC(=O)c2ccccc2)cc(N(C)C)n1 | > 35 µM (inactive)
50 | O=C(Nc1cc(N2CCNCC2)ncn1)c1ccccc1 | > 35 µM (inactive)
51 | CCN(CC)c1cc(NC(=O)c2cccc(C#N)c2)ncn1 | > 35 µM (inactive)
52 | COc1cc(OC)cc(C(=O)Nc2cc(N(C)C)ncn2)c1 | > 35 µM (inactive)
53 | COc1cc(OC)cc(C(=O)Nc2cc(N3CCCCC3)ncn2)c1 | 4.69 µM
54 | CN(C)c1cc(NC(=O)c2cccc(F)c2)ncn1 | > 35 µM (inactive)
